Assay: Binding affinity against Sigma receptor type 1 was determined by the displacement of [3H]pentazocine radioligand

C[C@@H]1CN(CCCn2c3ccc(Br)cc3c3cc(Br)ccc32)C[C@@H](C)N1 [3,6-Dibromo-9-[3-(3,5-dimethyl-piperazin-1-yl)-propyl]-9H-carbazole]
Ki: 4420 nM

C[C@@H]1CN(CCCn2c3ccccc3c3ccccc32)C[C@@H](C)N1C [9-[3-(3,4,5-Trimethyl-piperazin-1-yl)-propyl]-9H-carbazole]
Ki: 552 nM

C[C@@H]1CN(CCCn2c3ccccc3c3cc([N+](=O)[O-])ccc32)C[C@@H](C)N1 [9-[3-(3,5-Dimethyl-piperazin-1-yl)-propyl]-3-nitro-9H-carbazole]
Ki: 596 nM

C[C@@H]1CN(CCCn2c3ccccc3c3cc(N)ccc32)C[C@@H](C)N1 [9-[3-(3,5-Dimethyl-piperazin-1-yl)-propyl]-9H-carbazol-3-ylamine]
Ki: 5720 nM

C[C@@H]1CN(CCCn2c3ccccc3c3ccccc32)C[C@@H](C)N1CCCc1ccccc1 [9-{3-[3,5-Dimethyl-4-(3-phenyl-propyl)-piperazin-1-yl]-propyl}-9H-carbazole]
Ki: 104 nM

C[C@@H]1CN(CCCN(c2ccc(F)cc2)c2ccc(F)cc2)C[C@@H](C)N1CCc1ccc(Cl)c(Cl)c1 [(3-{(3R,5R)-4-[2-(3,4-Dichloro-phenyl)-ethyl]-3,5-dimethyl-piperazin-1-yl}-propyl)-bis-(4-fluoro-phenyl)-amine]
Ki: 32.5 nM

C[C@@H]1CN(CCCN(c2ccccc2)c2ccccc2)C[C@@H](C)N1CCc1ccc(Cl)c(Cl)c1 [(3-{(3R,5R)-4-[2-(3,4-Dichloro-phenyl)-ethyl]-3,5-dimethyl-piperazin-1-yl}-propyl)-diphenyl-amine]
Ki: 29.6 nM

Fc1ccc(N(CCCN2CCNCC2)c2ccc(F)cc2)cc1 [Bis-(4-fluoro-phenyl)-(3-piperazin-1-yl-propyl)-amine]
Ki: 1390 nM

Fc1ccc(N(CCCN2CCN(CCCc3ccccc3)CC2)c2ccc(F)cc2)cc1 [Bis-(4-fluoro-phenyl)-{3-[4-(3-phenyl-propyl)-piperazin-1-yl]-propyl}-amine]
Ki: 66.2 nM

Fc1ccc(N(CCCN2CCN(Cc3ccccc3)CC2)c2ccc(F)cc2)cc1 [N-(3-(4-benzylpiperazin-1-yl)propyl)-4-fluoro-N-(4-fluorophenyl)benzenamine]
Ki: 13.1 nM

CCN(CC)CCOCCOC(=O)C1(c2ccccc2)CCCC1 [SMR000326757]
Ki: 19.5 nM

C[C@@H]1CN(CCCN(c2ccc(F)cc2)c2ccc(F)cc2)C[C@@H](C)N1 [[3-((3R,5R)-3,5-Dimethyl-piperazin-1-yl)-propyl]-bis-(4-fluoro-phenyl)-amine]
Ki: 124 nM

C[C@@H]1CN(CCCN(c2ccccc2)c2ccccc2)C[C@@H](C)N1 [[3-((3R,5R)-3,5-Dimethyl-piperazin-1-yl)-propyl]-diphenyl-amine]
Ki: 138 nM

C[C@@H]1CN(CCCN(c2ccc(F)cc2)c2ccc(F)cc2)C[C@@H](C)N1CCCc1ccccc1 [{3-[3,5-Dimethyl-4-(3-phenyl-propyl)-piperazin-1-yl]-propyl}-bis-(4-fluoro-phenyl)-amine]
Ki: 11.1 nM

C[C@@H]1CN(CCCN(c2ccccc2)c2ccccc2)C[C@@H](C)N1CCCc1ccccc1 [{3-[3,5-Dimethyl-4-(3-phenyl-propyl)-piperazin-1-yl]-propyl}-diphenyl-amine]
Ki: 97.2 nM

Source: BindingDB's records for doi:10.1021/jm030008u (Nida-Irp, 2003)
